Laboratory results taken from publication PMC9502272, “A Metabolomics Approach for Predicting OATP1B-Type Transporter-Mediated Drug–Drug Interaction Liabilities” (Pharmaceutics, 2022).
“And” between values parts separate entries of the source, which are not always exact repeats. Identical values can stand only once.

Assays:
Oatp1a/1b = assay: Baseline plasma biomarker levels in Oatp1a/1b(−/−) cluster-knockout vs wild-type mice; format: in vivo, mouse; details: n = 6–10 per group
Protocol: Plasma concentrations of levels of CDCA-24G and glycochenodeoxycholate-3-sulfate (GCDCA-S) were determined using LC-MS/MS using a Vanquish UHPLC coupled with a Quantiva triple quadrupole mass spectrometer (Thermo Fisher Scientific, Waltham, MA, USA). An Accucore aQ column (50 × 2.1 mm, dp = 2.6 μm; Thermo Fisher Scientific) was protected by a C18 AQUASIL guard cartridge (2.1 mm × 10 mm, dp = 3 μm; Thermo Fisher Scientific). The injection volume of sample was 5.0 μL. The temperature of the autosampler rack was 4 °C, and the temperature of the column was maintained at 20 °C. The mobile phase was composed of solvent A (2 mmol ammonium acetate in water) and solvent B (100% methanol), and the total run time was 4.6 min. The gradient conditions were as follows: 0–0.5 min, 45% B; 0.5–2.0 min, 45 to 90%, 2.0–4.0 min, 90% B; 4.0–4.6 min, 45% B, delivered at a flow rate of 0.4 mL/min. The MS assay setting with the positive voltage applied to the ESI capillary was set at 3791 V, and the capillary temperatures was 335 °C with a vaporizer temperature of 350 °C. Argon was used as the collision gas at a pressure of 1.5 mTorr. Precursor molecular ions, and product ions were recorded for the confirmation and detection of GCDCA-S (528.4 > 448.3) and CDCA-24G (567.4 > 391.1), using [^2H5]-GCDCA-S (535.5 > 453.3) and [^2H5]-CDCA-24G (572.5 > 396.1) as respective internal standards. The lower limit of quantitation (LLOQ) for both analytes was determined to be 0.5 ng/mL. […]
Plasma concentrations of coproporphyrin I (CP-I) and III (CP-III) were determined similarly by LC-MS/MS. […] Precursor molecular ions and product ions were recorded for confirmation and detection of CP-I (655.4 > 596.4) and CP-III (655.4 > 596.3), using [^2H4]-CP-III (659.4 > 600.3) as the internal standard for both analytes. The LLOQ for both analytes were determined to be 1 ng/mL, and the within-run and between-run precisions as well as the accuracy were always within acceptable limits.

Oatp1b2 = target: T1, Oatp1b2 (Mus musculus, UniProt Q9JJL3); assay: Uptake in HEK293 cells overexpressing Oatp1b2; format: cell-based; parameters: from tissue; hepatic transporter in vivo; details: HEK293 cells overexpressing Oatp1b2, 5 min uptake, vs empty vector
T1 sequence (Q9JJL3 1-689): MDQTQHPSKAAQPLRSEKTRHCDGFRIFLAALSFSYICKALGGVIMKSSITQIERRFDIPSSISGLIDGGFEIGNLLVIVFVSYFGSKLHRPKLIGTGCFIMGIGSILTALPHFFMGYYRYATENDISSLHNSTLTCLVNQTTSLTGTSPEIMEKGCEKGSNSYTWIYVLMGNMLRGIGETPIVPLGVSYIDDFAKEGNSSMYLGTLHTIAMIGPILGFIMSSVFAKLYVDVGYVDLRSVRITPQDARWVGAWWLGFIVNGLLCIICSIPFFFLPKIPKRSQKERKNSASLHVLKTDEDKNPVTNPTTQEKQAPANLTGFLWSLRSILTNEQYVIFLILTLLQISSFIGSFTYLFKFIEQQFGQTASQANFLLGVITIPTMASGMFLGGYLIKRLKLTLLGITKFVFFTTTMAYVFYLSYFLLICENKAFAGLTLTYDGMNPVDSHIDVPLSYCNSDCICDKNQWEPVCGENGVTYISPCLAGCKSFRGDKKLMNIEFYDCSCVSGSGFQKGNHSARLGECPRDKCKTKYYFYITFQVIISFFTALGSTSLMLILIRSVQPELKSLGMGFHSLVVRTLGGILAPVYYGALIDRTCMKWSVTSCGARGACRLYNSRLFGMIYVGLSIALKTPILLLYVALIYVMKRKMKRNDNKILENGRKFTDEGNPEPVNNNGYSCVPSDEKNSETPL
Protocol: The generation of human embryonic kidney (HEK293) cells (ATCC) engineered to overexpress OATP1B1, Oatp1b2, or empty vector, the cell culture conditions, and general details of uptake studies have been reported in detail elsewhere. Briefly, cells were grown to 90% confluence on poly-lysine coated multi-well plates. […] The pre-treatment medium was rinsed off with warm 1× PBS followed by the addition of the test compounds for an incubation period of 5 min. After incubation, transport was halted by aspirating the medium and rinsing the cells three times with ice-cold 1× PBS. After lysing cells with 0.1 N HCl, and subsequent adding methanol, 20 μL aliquots were mixed with 60 μL of acetonitrile containing relevant internal standards. After vortex mixing, the mixtures were centrifuged, and the supernatants were used for quantitative analysis by LC-MS/MS. Drug uptake results were normalized to total protein content and then to data obtained in cells carrying an empty vector plasmid, which was set to 100%.

C[C@H](CCC(=O)O[C@@H]1O[C@H](C(=O)O)[C@@H](O)[C@H](O)[C@H]1O)[C@H]1CC[C@H]2[C@@H]3[C@H](O)C[C@@H]4C[C@H](O)CC[C@]4(C)[C@H]3CC[C@]12C [CDCA-24G, chenodeoxycholate-24-glucuronide]
Plasma concentration of CDCA-24G in Oatp1a/1b(−/−) mice relative to wild type (Oatp1a/1b): 83 fold and > 80 fold
Transport by murine OATP1B-type transporter (Oatp1b2): efficiently transported
